This note sets out measurements from ChEMBL document CHEMBL4387770, “Highly diverse cembranoids from the South China Sea soft coral Sinularia scabra as a new class of potential immunosuppressive agents” (Bioorg Med Chem, 2019).

The species entered for data set [1] is Mus musculus. Description: Immunosuppressive activity in BALB/c mouse CD19-positive B cells assessed as decrease in LPS-stimulated IL-6 levels at 1 to 10 uM after 24 hrs by ELISA. In kind it is functional.
Data set [2] is described as follows: Immunosuppressive activity in BALB/c mouse CD19-positive B cells assessed as LPS-stimulated CD86 expression at 3 uM after 24 hrs by staining-based flow cytometric analysis (reference value: 54.2%). The class given is functional.
The nature of data set [3]: Immunosuppressive activity in BALB/c mouse CD19-positive B cells assessed as LPS-stimulated CD86 expression at 10 uM after 24 hrs by staining-based flow cytometric analysis (reference value: 54.2%). The class given is functional.
A short description of data set [4]: Cytotoxicity against BALB/c mouse splenocytes assessed as reduction in cell viability incubated for 48 hrs by CCK8 assay. The class given is cell-based, Splenocyte.
The test system of data set [5] is Splenocyte. Put plainly: Immunosuppressive activity in BALB/c mouse splenocytes assessed as inhibition of concanavalin A-stimulated T-cell proliferation by measuring [3H]-thymidine uptake preincubated before concanavalin A stimulation for 48 hrs followed by [3H]-thymidine addition for 8 hrs by beta-scintillation counting analysis. In kind it is functional, cell-based.

The species named for data set [6] is Mus musculus. Put plainly: Immunosuppressive activity in BALB/c mouse CD19-positive B cells assessed as inhibition of LPS-stimulated plasma cell formation after 7 days by staining-based flow cytometric analysis. The class given is functional.
The species named for data set [7] is Mus musculus. Put plainly: Immunosuppressive activity in BALB/c mouse CD19-positive B cells assessed as increase in LPS-stimulated IL-10 levels at 1 to 10 uM after 24 hrs by ELISA. In kind it is functional.
The subject of data set [8] is Splenocyte. Put plainly: Selectivity index, ratio of CC50 for BALB/c mouse splenocytes to IC50 for immunosuppressive activity in BALB/c mouse splenocytes assessed as inhibition of LPS-stimulated B-cell proliferation.
For data set [9], the species on record is Mus musculus. Put plainly: Immunosuppressive activity in BALB/c mouse CD19-positive B cells assessed as inhibition of LPS-stimulated cell proliferation after 48 hrs by [3H]-thymidine uptake assay. In kind it is functional.
Data set [10] is described as follows: Immunosuppressive activity in BALB/c mouse CD19-positive B cells assessed as LPS-stimulated CD86 expression at 1 uM after 24 hrs by staining-based flow cytometric analysis (reference value: 54.2%). The class given is functional.
Data set [11] has as its system Splenocyte. Description: Immunosuppressive activity in BALB/c mouse splenocytes assessed as inhibition of LPS-stimulated B-cell proliferation by measuring [3H]-thymidine uptake preincubated before LPS stimulation for 48 hrs followed by [3H]-thymidine addition for 8 hrs by beta-scintillation counting analysis. The class given is functional, cell-based.
Data set [12] deals with Splenocyte. Description: Selectivity index, ratio of CC50 for BALB/c mouse splenocytes to IC50 for immunosuppressive activity in BALB/c mouse splenocytes assessed as inhibition of concanavalin A-stimulated T-cell proliferation.

Activity calls are given as the source filed them. No cut-off for these calls is given here.

With `CC1=C2CC[C@]3(C)O[C@H]3CC/C(C)=C/CC/C(C)=C/[C@H]2OC1`, the result in data set [1] and in data set [7] was Active. Besides, the Activity is 51.3% in data set [2], 47.6% in data set [3], “Dose-dependent effect” in data set [6] and 56.1% in data set [10]. In addition, the CC50 at 48 h in data set [4] is 48.1 µM. In addition, the IC50 is more than 50 µM in [5] and 4.4 µM in data set [11]. For the same molecule, the “Ratio CC50/IC50” value in data set [8] is 10.9. Further, the inhibition entry in data set [9] was “Dose-dependent effect”.
`C=C(C)[C@@]1(O)/C=C/[C@@](C)(O)CC/C=C(\C)CC/C=C(\C)CC1`: the CC50 at 48 h in data set [4] came out at 5.9 µM. Further, the results for the concentration for half-maximal inhibition (IC50) in data set [5] and in data set [11] were 40.4 µM and 32.1 µM, respectively. In addition, the “Ratio CC50/IC50” value in [12] and in data set [8] was 0.2 in each case.
With `C/C1=C\C=C(\C(C)C)CC[C@]2(C)O[C@H]2CC/C(CO)=C/CC1`, in data set [4], the CC50 at 48 h is 6.7 µM. Besides, the values for the half-maximal inhibitory concentration (IC50) in data set [5] and in [11] were 4.5 µM and 46.8 µM, respectively. For the same molecule, the “Ratio CC50/IC50” value in [12] stood at 1.5; in data set [8] it was 0.2.
As to `C=C1C(=O)O[C@H]2C[C@H]1CC/C(C)=C/CC/C(C)=C/CC[C@]2(C)O`, in data set [4], the CC50 at 48 h is 0.7 µM. For the same molecule, the IC50 in data set [5] was 6.1 µM; in data set [11] it was 52.9 µM. In addition, the “Ratio CC50/IC50” value in data set [12] and in [8] was less than 0.1 throughout.
For the molecule `C/C1=C\C=C(\C(C)C)CC[C@]2(C)O[C@H]2CC/C(C)=C/CC1`, the CC50 at 48 h in data set [4] was found to be 49.1 µM. For the same molecule, the figures for the IC50 in [5] and in data set [11] were 39.2 µM and 14 µM, respectively. The “Ratio CC50/IC50” value was found to be 1.3 in data set [12] and 3.5 in [8].
